From publication PMC10866072, “Design, synthesis, molecular modelling and biological evaluation of novel 6-amino-5-cyano-2-thiopyrimidine derivatives as potent anticancer agents against leukemia and apoptotic inducers” (Journal of Enzyme Inhibition and Medicinal Chemistry, 2024)

Columns and labels:
A498 = type: cell-based
TK-10 = type: cell-based
[1] = MTT cytotoxicity on normal cells; type: cell-based; conditions: human, WI-38 cells (normal lung fibroblasts), WI-38 normal cells, mean ± SD of three experiments, read-out: IC50 (cytotoxic activity)
Protocol: The American Type Culture Collection provided WI-38 cells (normal lung cells). The cells were grown in DMEM with 10% heat-inactivated FBS (Hyclone), 10 µg/ml of insulin (Sigma), and 1% penicillin-streptomycin. The remaining chemicals and reagents were all from Sigma or Invitrogen. The MTT test was used to evaluate cytotoxicity, as described previously. Graph pad Prism software (San Diego, CA) was used to estimate the 50% inhibitory concentration (IC50) from dose response curve graphic plots for each conc.

melanoma cell lines = assay: NCI-60 five-dose, subpanel
Description: (§2) Furthermore, the average sensitivity of all cell lines to the compound is termed as the full panel mean graph midpoints (MG-MID). The complete panel mean graph midpoints refers to the average sensitivity of all cell lines to the chemical (MG-MID). A measure of a compound’s selectivity for a given cell line is the ratio created by dividing the full panel mean graph midpoints (MG-MID) concentration by the individual subpanel MG-MID concentrations (obtained as the average sensitivity of all the cell lines in a given subpanel to the test compound).
(§3) Assessment of selectivity of a compound depends on the ratio obtained by dividing the full panel MID ^a by their individual subpanel MID ^b (µM) where MID^a is the average sensitivity of all cell lines towards the test agent (µM).

PC-3 = type: cell-based
OVCAR-3 = type: cell-based
MALME-3M = type: cell-based
M14 = type: cell-based
T-47D = type: cell-based
leukaemia SR cells = assay: Annexin V-FITC/PI apoptosis and necrosis assay; type: cell-based, human; conditions: 48 h treatment
Protocol: (§1) For more assessment of compound 1c, apoptosis assay was performed using annexin V-FITC Apoptosis detection kit (Biovision, cat#: K101-25) followed by flow cytometric analysis[92]^,[93]. Briefly, HL60 and leukaemia SR cells were cultured under optimum conditions followed by compound I c treatment for 48 h. then, washed in PBS, centrifuged, and resuspended in 500 µl of 1 x binding buffer. Moreover, 5 µl of annexin V-FITC, and 5 µl of propidium iodide were added and incubated in dark for 5 min. Finally, apoptotic cells were detected using flow cytometer as well as PI staining by emission signal detector. FACS Calibur flow cytometer (Becton Dickinson Biosciences) was used to analyse the cells’ apoptosis.

HL60 cells = assay: Annexin V-FITC/PI apoptosis and necrosis assay; type: cell-based, human; conditions: HL60, 48 h treatment
Protocol: as §1

NCI/ADR-RES = type: cell-based
PI3Kδ = target: T1, PI3Kδ (Homo sapiens, UniProt O00329); assay: PI3 Kinase Activity/Inhibitor Assay Kit; type: biochemical; conditions: mean of two independent replicates ± SD
T1 construct: purchased Millipore Corporation 17-493 (assay kit)
T1 sequence (O00329 whole entry): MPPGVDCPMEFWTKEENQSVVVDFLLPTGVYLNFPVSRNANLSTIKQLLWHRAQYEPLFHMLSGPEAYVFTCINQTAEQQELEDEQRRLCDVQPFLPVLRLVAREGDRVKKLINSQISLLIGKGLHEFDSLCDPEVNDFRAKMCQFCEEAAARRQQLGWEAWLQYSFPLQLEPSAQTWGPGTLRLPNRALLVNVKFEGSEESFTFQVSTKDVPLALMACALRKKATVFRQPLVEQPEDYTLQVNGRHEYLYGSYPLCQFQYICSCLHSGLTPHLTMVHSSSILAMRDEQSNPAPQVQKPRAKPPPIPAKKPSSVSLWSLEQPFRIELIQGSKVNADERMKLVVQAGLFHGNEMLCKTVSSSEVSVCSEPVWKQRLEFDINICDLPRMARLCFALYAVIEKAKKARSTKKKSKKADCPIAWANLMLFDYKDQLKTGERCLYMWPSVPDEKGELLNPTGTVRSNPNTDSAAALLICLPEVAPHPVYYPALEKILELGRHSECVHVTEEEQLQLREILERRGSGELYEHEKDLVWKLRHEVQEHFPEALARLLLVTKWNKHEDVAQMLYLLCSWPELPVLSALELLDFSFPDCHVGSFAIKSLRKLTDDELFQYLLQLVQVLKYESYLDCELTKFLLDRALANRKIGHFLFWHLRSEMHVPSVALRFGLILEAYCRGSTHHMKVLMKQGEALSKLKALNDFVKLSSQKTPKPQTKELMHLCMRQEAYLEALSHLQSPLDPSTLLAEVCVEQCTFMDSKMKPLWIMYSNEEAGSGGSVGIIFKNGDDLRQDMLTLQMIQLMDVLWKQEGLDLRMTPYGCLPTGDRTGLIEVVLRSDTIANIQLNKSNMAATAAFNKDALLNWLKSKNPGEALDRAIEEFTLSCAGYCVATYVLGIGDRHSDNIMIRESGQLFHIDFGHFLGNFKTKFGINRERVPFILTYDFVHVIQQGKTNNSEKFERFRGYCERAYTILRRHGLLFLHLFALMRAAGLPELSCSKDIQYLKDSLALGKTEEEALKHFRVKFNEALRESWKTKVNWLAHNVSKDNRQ
T1 sequence (P27986 whole entry partner): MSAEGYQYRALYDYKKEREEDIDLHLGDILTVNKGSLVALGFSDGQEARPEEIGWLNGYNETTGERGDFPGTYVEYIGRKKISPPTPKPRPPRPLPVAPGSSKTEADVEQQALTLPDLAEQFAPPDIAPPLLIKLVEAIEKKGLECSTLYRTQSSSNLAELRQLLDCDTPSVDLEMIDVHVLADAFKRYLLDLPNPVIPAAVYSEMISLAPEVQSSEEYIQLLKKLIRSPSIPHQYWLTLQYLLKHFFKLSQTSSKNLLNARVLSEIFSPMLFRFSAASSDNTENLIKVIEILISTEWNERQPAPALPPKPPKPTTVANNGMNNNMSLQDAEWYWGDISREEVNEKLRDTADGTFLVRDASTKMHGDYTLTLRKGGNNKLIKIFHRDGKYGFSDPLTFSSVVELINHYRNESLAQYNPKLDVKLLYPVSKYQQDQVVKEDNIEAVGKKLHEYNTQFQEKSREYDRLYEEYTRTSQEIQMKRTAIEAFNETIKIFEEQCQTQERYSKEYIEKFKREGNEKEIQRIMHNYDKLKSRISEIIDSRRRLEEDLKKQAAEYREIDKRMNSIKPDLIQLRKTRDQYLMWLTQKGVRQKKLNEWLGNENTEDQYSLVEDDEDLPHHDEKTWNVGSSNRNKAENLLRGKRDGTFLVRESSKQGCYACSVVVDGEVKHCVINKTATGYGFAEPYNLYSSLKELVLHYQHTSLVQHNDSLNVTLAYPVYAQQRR
Protocol: (§4) In vitro PI3 kinases inhibitory activity assay
(§5) All buffers, working standards and samples were prepared.
(§6) A total of 5 μl/well 5X kinase reaction buffer was added following the addition of the substrate, then distilled water was added to fill up to 25 μl. After incubation for 1 h at room temperature, 25 μl of biotinylated PIP3/EDTA working solution was added to all wells except the buffer control. Instead, 25 μl tris-buffered saline (TBS) was added to the buffer control wells. A general receptor phosphoinsitides -1 working solution was added to all wells then, was incubated for 1 h at room temperature. After incubation, all wells were washed with 200 μl 1X TBS -Tween followed by addition of 50 μl (horseradish peroxide as econjugated streptavidin) SA -HRP then were incubated for 1 h at room temperature. All wells were washed using 100 μl 1X TBS -Tween and TBS followed by addition of 100 μl of substrate 3,3’,5,5’-tetramethylbenzidine and kept in dark for 5–20 min.

OVCAR-8 = type: cell-based
SF-268 = type: cell-based
SK-MEL-5 = type: cell-based
KM12 = type: cell-based
UACC-257 = type: cell-based
CCRF-CEM = type: cell-based
CNS Cancer cell lines = assay: NCI-60 five-dose, subpanel
Description: as §2, §3

SNB-19 = type: cell-based
HS 578T = type: cell-based
K-562 = type: cell-based
PI3Kβ = target: T2, PI3Kβ (Homo sapiens, UniProt P42338); assay: PI3 Kinase Activity/Inhibitor Assay Kit; type: biochemical; conditions: mean of two independent replicates ± SD
T2 construct: purchased Millipore Corporation 17-493 (assay kit)
T2 sequence (P42338 whole entry, species assumed): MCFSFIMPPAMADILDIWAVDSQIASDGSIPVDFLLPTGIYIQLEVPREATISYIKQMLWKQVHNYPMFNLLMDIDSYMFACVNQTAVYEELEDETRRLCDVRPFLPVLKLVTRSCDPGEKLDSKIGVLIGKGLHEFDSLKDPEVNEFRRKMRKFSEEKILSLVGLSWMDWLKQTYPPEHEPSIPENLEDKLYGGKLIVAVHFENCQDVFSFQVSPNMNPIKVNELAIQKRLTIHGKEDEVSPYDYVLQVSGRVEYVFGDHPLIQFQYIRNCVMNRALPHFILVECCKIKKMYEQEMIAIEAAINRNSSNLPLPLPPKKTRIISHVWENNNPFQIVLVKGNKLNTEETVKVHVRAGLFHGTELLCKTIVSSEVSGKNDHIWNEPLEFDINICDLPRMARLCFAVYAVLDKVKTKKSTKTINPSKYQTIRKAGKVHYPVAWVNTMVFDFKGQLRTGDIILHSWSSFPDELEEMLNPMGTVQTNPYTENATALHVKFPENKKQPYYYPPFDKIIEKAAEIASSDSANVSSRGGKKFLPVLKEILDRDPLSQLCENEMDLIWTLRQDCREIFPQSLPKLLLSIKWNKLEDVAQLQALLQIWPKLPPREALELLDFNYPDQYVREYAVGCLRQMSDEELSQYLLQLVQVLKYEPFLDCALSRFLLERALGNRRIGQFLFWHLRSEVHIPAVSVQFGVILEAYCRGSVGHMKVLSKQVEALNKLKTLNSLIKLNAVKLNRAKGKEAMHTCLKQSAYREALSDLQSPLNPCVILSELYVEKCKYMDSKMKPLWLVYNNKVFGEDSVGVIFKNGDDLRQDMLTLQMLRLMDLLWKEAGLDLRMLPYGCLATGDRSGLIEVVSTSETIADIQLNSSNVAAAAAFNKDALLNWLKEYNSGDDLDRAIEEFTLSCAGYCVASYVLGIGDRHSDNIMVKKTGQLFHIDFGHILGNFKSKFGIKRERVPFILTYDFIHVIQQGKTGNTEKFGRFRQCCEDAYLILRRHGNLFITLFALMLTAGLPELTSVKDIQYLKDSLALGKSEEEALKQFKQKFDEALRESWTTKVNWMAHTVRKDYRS
T2 sequence (P27986 whole entry partner, species assumed): as the sequence (P27986 whole entry partner) above
Protocol: as §4, §5, §6

Renal cancer cell lines = assay: NCI-60 five-dose, subpanel
Description: A measure of a compound’s selectivity for a given cell line is the ratio created by dividing the full panel mean graph midpoints (MG-MID) concentration by the individual subpanel MG-MID concentrations (obtained as the average sensitivity of all the cell lines in a given subpanel to the test compound).
as §3

SN12C = type: cell-based, human; conditions: Homo sapiens, one dose 10^-5 M, 48 h
[2] = Homo sapiens, one dose 10^-5 M, 48 h
[3] = Homo sapiens, read-out: GI50 Subpanel MID^b
[4] = Homo sapiens, five-dose, read-out: LC50 (the source's name)
[5] = Homo sapiens, one dose 10^-5 M, 48 h, read-out: % growth

Structure (SMILES): N#Cc1c(N)nc(S)nc1-c1ccc(Cl)cc1Cl [Compound 1c, 4-Amino-6–(2,4-dichlorophenyl)-2-mercaptopyrimidine-5-carbonitrile]
- GI50 (A498; Homo sapiens, five-dose): 19.8 µM
- LC50 (A498; Homo sapiens, five-dose): 78.5 µM
- % growth at 10 µM (A498; [2]): 137%
- TGI (A498; five-dose): 39.40 µM
- GI50 (TK-10; Homo sapiens, five-dose): 21.5 µM
- LC50 (50% lethal concentration) (TK-10; Homo sapiens, five-dose): > 100 µM
- % cell growth at 10 µM (TK-10; [2]): 114%
- TGI (TK-10; five-dose): 50.20 µM
- IC50 [1]: 43.6 ± 1.2 µM
- GI50 (melanoma cell lines; [3]): 10.7 µM
- Selectivity ratio (full panel MID^a / subpanel MID^b, GI50 level) (melanoma cell lines; melanoma): 1.2
- GI50 (PC-3; Homo sapiens, five-dose): 11.1 µM
- CC50 (PC-3; [4]): > 100 µM
- percent cell growth at 10 µM (PC-3; [2]): 49.8%
- TGI (PC-3; five-dose): 48.20 µM
- GI50 (OVCAR-3; Homo sapiens, five-dose): 18.1 µM
- CC50 (OVCAR-3; [4]): > 100 µM
- % growth at 10 µM (OVCAR-3; [2]): 17.1%
- TGI (OVCAR-3; five-dose): 47.60 µM
- GI50 (MALME-3M; Homo sapiens, five-dose): 15.3 µM
- CC50 (MALME-3M; [4]): 69.7 µM
- % growth at 10 µM (MALME-3M; [2]): 4.96%
- TGI (MALME-3M; five-dose): 32.70 µM
- GI50 (M14; Homo sapiens, five-dose): 2420 nM
- CC50 (M14; [4]): 93.7 µM
- % growth at 10 µM (M14; [2]): 49.8%
- TGI (M14; five-dose): 28.00 µM
- GI50 (T-47D; Homo sapiens, T47D, five-dose): 9.87 µM
- CC50 (T-47D; Homo sapiens, T47D, five-dose, read-out: LC50 (the source's name)): > 100 µM
- activity at 10 µM (T-47D; Homo sapiens, T47D, one dose 10^-5 M, 48 h, read-out: % growth): 54.5%
- TGI (T-47D; five-dose): 32.30 µM
- early apoptosis (leukaemia SR cells): 14.97%
- late apoptosis (leukaemia SR cells): 23.02%
- necrosis percentage (leukaemia SR cells): 4.72%
- early apoptosis (HL60 cells): 23.79%
- late apoptosis (HL60 cells): 9.89%
- necrosis percentage (HL60 cells): 3.41%
- GI50 (NCI/ADR-RES; Homo sapiens, five-dose): 700 nM
- CC50 (NCI/ADR-RES; [4]): > 100 µM
- cell growth percent at 10 µM (NCI/ADR-RES; [2]): 37.9%
- TGI (NCI/ADR-RES; five-dose): 26.20 µM
- IC50 (PI3Kδ): 3.4 ± 4 nM
- GI50 (OVCAR-8; Homo sapiens, five-dose): 21.8 µM
- CC50 (OVCAR-8; [4]): > 100 µM
- % growth of cells at 10 µM (OVCAR-8; [2]): 5.74%
- TGI (OVCAR-8; five-dose): 74.70 µM
- GI50 (SF-268; Homo sapiens, five-dose): 18.1 µM
- CC50 (SF-268; [4]): > 100 µM
- activity at 10 µM (SF-268; [5]): 51%
- TGI (SF-268; five-dose): 52.70 µM
- GI50 (SK-MEL-5; Homo sapiens, five-dose): 5.56 µM
- CC50 (SK-MEL-5; [4]): 45 µM
- activity at 10 µM (SK-MEL-5; [5]): 58.1%
- TGI (SK-MEL-5; five-dose): 19.50 µM
- GI50 (KM12; Homo sapiens, five-dose): 19 µM
- LC50 (KM12; Homo sapiens, five-dose): 80.1 µM
- % growth at 10 µM (KM12; [2]): 49.5%
- TGI (KM12; five-dose): 39.00 µM
- GI50 (UACC-257; Homo sapiens, five-dose): 14.7 µM
- CC50 (UACC-257; [4]): 67.2 µM
- percent cell growth at 10 µM (UACC-257; [2]): 77.7%
- TGI (UACC-257; five-dose): 31.50 µM
- GI50 (CCRF-CEM; Homo sapiens, five-dose): 300 nM
- LC50 (concentration killing 50% of tumour cells) (CCRF-CEM; Homo sapiens, five-dose): > 100 µM
- % cell growth at 10 µM (CCRF-CEM; [2]): 7.65%
- TGI (CCRF-CEM; five-dose): 16.10 µM
- Selectivity ratio (full panel MID^a / subpanel MID^b, GI50 level) (CNS Cancer cell lines; CNS cancer): 1.04
- GI50 (CNS Cancer cell lines; [3]): 12.4 µM
- GI50 (SNB-19; Homo sapiens, five-dose): 17 µM
- CC50 (SNB-19; [4]): > 100 µM
- activity at 10 µM (SNB-19; [5]): 75.4%
- TGI (SNB-19; five-dose): 50.00 µM
- GI50 (HS 578T; Homo sapiens, five-dose, HS 578 T): 18.8 µM
- CC50 (HS 578T; Homo sapiens, five-dose, HS 578 T, read-out: LC50 (the source's name)): > 100 µM
- activity at 10 µM (HS 578T; Homo sapiens, one dose 10^-5 M, 48 h, HS 578T, read-out: % growth): 75.3%
- TGI (HS 578T; five-dose, HS 578 T): 92.60 µM
- GI50 (K-562; Homo sapiens, K562, five-dose): 140 nM
- CC50 (K-562; Homo sapiens, K562, five-dose, read-out: LC50 (the source's name)): > 100 µM
- % growth at 10 µM (K-562; Homo sapiens, K562, one dose 10^-5 M, 48 h): 36.9%
- TGI (K-562; five-dose): >100 µM
- IC50 (PI3Kβ): 550 ± 2 nM
- GI50 (Renal cancer cell lines; [3]): 14.2 µM
- Selectivity ratio (full panel MID^a / subpanel MID^b, GI50 level) (Renal cancer cell lines; renal cancer): 0.9
- % growth at 10 µM (SN12C): 62.1%
